From PubChem BioAssay (NCI)
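1) Cells in 96-well plates. 2) Compound, 48 h, 5 concentrations. 3) Linear interpolation between surrounding doses. 4) Unreached endpoint = highest concentration. TGI is the concentration that stops growth completely.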

Key:
Assay in all cases: NCI anticancer screen, dose series, 48 h
[1] = tested on: SNB-75 CNS
[2] = tested on: HCT-15 colon
[3] = tested on: HOP-62 NSCLC
[4] = tested on: NCI-H226 lung
[5] = tested on: SK-MEL-28 melanoma
[6] = tested on: SNB-19 CNS
[7] = tested on: RXF 393 renal
[8] = tested on: NCI-H522 lung
[9] = tested on: SF-539 CNS
[10] = tested on: SK-OV-3 ovarian
[11] = tested on: HL-60(TB) leukemia
[12] = tested on: HT29 colon
[13] = tested on: CCRF-CEM leukemia
[14] = tested on: MALME-3M melanoma
[15] = tested on: 786-0 renal
[16] = tested on: DMS 273 small cell lung
[17] = tested on: LXFL 529 NSCLC
[18] = tested on: UO-31 renal
[19] = tested on: RPMI-8226 leukemia
[20] = tested on: EKVX NSCLC
[21] = tested on: IGROV1 ovarian
[22] = tested on: SF-295 CNS
[23] = tested on: CAKI-1 renal
[24] = tested on: HCC-2998 colon
[25] = tested on: NCI-H23 lung
[26] = tested on: TK-10 renal
[27] = tested on: M19-MEL melanoma
[28] = tested on: K-562 leukemia
[29] = tested on: DMS 114 small cell lung
[30] = tested on: XF 498 CNS
[31] = tested on: SN12C renal
[32] = tested on: OVCAR-3 ovarian
[33] = tested on: M14 melanoma
[34] = tested on: SF-268 CNS
[35] = tested on: SK-MEL-5 melanoma
[36] = tested on: LOX IMVI melanoma
[37] = tested on: UACC-62 melanoma
[38] = tested on: U251 CNS
[39] = tested on: SK-MEL-2 melanoma
[40] = tested on: A498 renal
[41] = tested on: OVCAR-8 ovarian
[42] = tested on: KM12 colon
[43] = tested on: KM20L2 colon
[44] = tested on: DLD-1 colon
[45] = tested on: A549 NSCLC
[46] = tested on: COLO 205 colon
[47] = tested on: UACC-257 melanoma
[48] = tested on: SW-620 colon
[49] = tested on: NCI-H460 lung
[50] = tested on: MOLT-4 leukemia
[51] = tested on: HCT-116 colon
[52] = tested on: HOP-92 NSCLC
[53] = tested on: ACHN renal
[54] = tested on: OVCAR-4 ovarian
[55] = tested on: HOP-18 NSCLC
[56] = tested on: OVCAR-5 ovarian
[57] = tested on: SR leukemia
[58] = tested on: SNB-78 CNS

With `O=C(NO)c1ccc([N+](=O)[O-])cc1` the TGI [1] was 93.8 µM, the TGI [2] was greater than 100 µM and the TGI [3] was greater than 100 µM. For the same compound, the TGI [4] was greater than 100 µM, the TGI [5] was greater than 100 µM and the TGI [6] was greater than 100 µM. For the same compound, the TGI [7] was 71.8 µM, the TGI [8] was 97.2 µM and the TGI [9] was greater than 100 µM. The TGI [10] was greater than 100 µM, the TGI [11] was 50.9 µM and the TGI [12] was greater than 100 µM. The TGI [13] was greater than 100 µM, the TGI [14] was greater than 100 µM and the TGI [15] was greater than 100 µM. The TGI [16] was greater than 100 µM, the TGI [17] was 83.8 µM and the TGI [18] was greater than 100 µM. The TGI [19] was greater than 100 µM, the TGI [20] was greater than 100 µM and the TGI [21] was greater than 100 µM. The TGI [22] was greater than 100 µM, the TGI [23] was greater than 100 µM and the TGI [24] was greater than 100 µM. For the same compound, the TGI [25] was greater than 100 µM, the TGI [26] was greater than 100 µM and the TGI [27] was greater than 100 µM. The TGI [28] was greater than 100 µM, the TGI [29] was greater than 100 µM and the TGI [30] was greater than 100 µM. The TGI [31] was greater than 100 µM, the TGI [32] was greater than 100 µM and the TGI [33] was greater than 100 µM. The TGI [34] was greater than 100 µM, the TGI [35] was greater than 100 µM and the TGI [36] was greater than 100 µM. The TGI [37] was 50.5 µM, the TGI [38] was greater than 100 µM and the TGI [39] was greater than 100 µM. The TGI [40] was 85.4 µM, the TGI [41] was greater than 100 µM and the TGI [42] was greater than 100 µM. It also gave a TGI [43] greater than 100 µM, a TGI [44] greater than 100 µM and a TGI [45] greater than 100 µM. For the same compound, the TGI [46] was 94 µM, the TGI [47] was greater than 100 µM and the TGI [48] was greater than 100 µM. It also gave a TGI [49] greater than 100 µM and a TGI [50] greater than 100 µM.
`COc1cc(NC(C)=O)c2[nH]c3c(C)cc(NC(C)=O)c(C)c3c2c1` gave a TGI [1] greater than 100 µM, a TGI [2] greater than 100 µM and a TGI [4] greater than 100 µM. The TGI [5] was greater than 100 µM, the TGI [6] was greater than 100 µM and the TGI [7] was greater than 100 µM. For the same compound, the TGI [8] was greater than 100 µM, the TGI [9] was greater than 100 µM and the TGI [10] was greater than 100 µM. For the same compound, the TGI [11] was greater than 100 µM, the TGI [51] was greater than 100 µM and the TGI [12] was greater than 100 µM. It also gave a TGI [13] greater than 100 µM, a TGI [52] greater than 100 µM and a TGI [15] greater than 100 µM. The TGI [16] was greater than 100 µM, the TGI [17] was greater than 100 µM and the TGI [18] was greater than 100 µM. The TGI [19] was greater than 100 µM, the TGI [20] was greater than 100 µM and the TGI [21] was greater than 100 µM. For the same compound, the TGI [22] was greater than 100 µM, the TGI [53] was greater than 100 µM and the TGI [23] was greater than 100 µM. For the same compound, the TGI [24] was greater than 100 µM, the TGI [25] was greater than 100 µM and the TGI [26] was greater than 100 µM. The TGI [27] was greater than 100 µM, the TGI [28] was greater than 100 µM and the TGI [29] was greater than 100 µM. The TGI [30] was greater than 100 µM, the TGI [31] was greater than 100 µM and the TGI [32] was greater than 100 µM. The TGI [33] was greater than 100 µM, the TGI [34] was greater than 100 µM and the TGI [35] was greater than 100 µM. It also gave a TGI [54] greater than 100 µM, a TGI [38] greater than 100 µM and a TGI [39] greater than 100 µM. The TGI [40] was greater than 100 µM, the TGI [41] was greater than 100 µM and the TGI [42] was greater than 100 µM. The TGI [43] was greater than 100 µM, the TGI [44] was greater than 100 µM and the TGI [45] was greater than 100 µM. The TGI [46] was greater than 100 µM, the TGI [48] was greater than 100 µM and the TGI [49] was greater than 100 µM. It also gave a TGI [55] greater than 100 µM and a TGI [50] greater than 100 µM.
With `NS(=O)(=O)c1cc2c(cc1Cl)NC(C(=O)c1cc(=O)c3ccc(O)cc3o1)=NS2(=O)=O` the TGI [1] was greater than 100 µM, the TGI [2] was greater than 100 µM and the TGI [3] was greater than 100 µM. It also gave a TGI [4] greater than 100 µM, a TGI [56] greater than 100 µM and a TGI [5] greater than 100 µM. For the same compound, the TGI [6] was greater than 100 µM, the TGI [7] was greater than 100 µM and the TGI [8] was greater than 100 µM. For the same compound, the TGI [9] was greater than 100 µM, the TGI [10] was greater than 100 µM and the TGI [11] was greater than 100 µM. For the same compound, the TGI [51] was greater than 100 µM, the TGI [12] was greater than 100 µM and the TGI [13] was greater than 100 µM. The TGI [52] was greater than 100 µM, the TGI [14] was greater than 100 µM and the TGI [57] was greater than 100 µM. For the same compound, the TGI [15] was greater than 100 µM, the TGI [16] was greater than 100 µM and the TGI [18] was greater than 100 µM. The TGI [19] was greater than 100 µM, the TGI [20] was greater than 100 µM and the TGI [21] was greater than 100 µM. For the same compound, the TGI [22] was greater than 100 µM, the TGI [53] was greater than 100 µM and the TGI [58] was greater than 100 µM. The TGI [23] was greater than 100 µM, the TGI [24] was greater than 100 µM and the TGI [25] was greater than 100 µM. For the same compound, the TGI [26] was greater than 100 µM, the TGI [27] was greater than 100 µM and the TGI [28] was greater than 100 µM. For the same compound, the TGI [29] was greater than 100 µM, the TGI [30] was greater than 100 µM and the TGI [31] was greater than 100 µM. It also gave a TGI [32] greater than 100 µM, a TGI [33] greater than 100 µM and a TGI [34] greater than 100 µM. The TGI [35] was greater than 100 µM, the TGI [36] was greater than 100 µM and the TGI [37] was greater than 100 µM. The TGI [54] was greater than 100 µM, the TGI [38] was greater than 100 µM and the TGI [39] was greater than 100 µM. For the same compound, the TGI [40] was greater than 100 µM, the TGI [41] was greater than 100 µM and the TGI [42] was greater than 100 µM. It also gave a TGI [43] greater than 100 µM, a TGI [44] greater than 100 µM and a TGI [45] greater than 100 µM. The TGI [46] was greater than 100 µM, the TGI [47] was greater than 100 µM and the TGI [48] was greater than 100 µM. The TGI [49] was greater than 100 µM, the TGI [55] was greater than 100 µM and the TGI [50] was greater than 100 µM.
For `CCOC(C[C@H](O)[C@H]1COC(=S)S1)OCC`, the TGI [2] was greater than 100 µM, the TGI [3] was greater than 100 µM and the TGI [4] was greater than 100 µM. It also gave a TGI [6] greater than 100 µM, a TGI [7] greater than 100 µM and a TGI [8] greater than 100 µM. For the same compound, the TGI [9] was greater than 100 µM, the TGI [11] was greater than 100 µM and the TGI [51] was greater than 100 µM. For the same compound, the TGI [12] was greater than 100 µM, the TGI [14] was greater than 100 µM and the TGI [57] was greater than 100 µM. It also gave a TGI [15] greater than 100 µM, a TGI [16] greater than 100 µM and a TGI [17] greater than 100 µM. The TGI [18] was greater than 100 µM, the TGI [19] was greater than 100 µM and the TGI [20] was greater than 100 µM. The TGI [21] was greater than 100 µM, the TGI [22] was greater than 100 µM and the TGI [53] was greater than 100 µM. The TGI [24] was greater than 100 µM, the TGI [25] was greater than 100 µM and the TGI [26] was greater than 100 µM. The TGI [27] was greater than 100 µM, the TGI [29] was greater than 100 µM and the TGI [30] was greater than 100 µM. It also gave a TGI [31] greater than 100 µM, a TGI [32] greater than 100 µM and a TGI [33] greater than 100 µM. It also gave a TGI [34] greater than 100 µM, a TGI [35] greater than 100 µM and a TGI [36] greater than 100 µM. It also gave a TGI [37] greater than 100 µM, a TGI [38] greater than 100 µM and a TGI [41] greater than 100 µM. For the same compound, the TGI [42] was greater than 100 µM, the TGI [43] was greater than 100 µM and the TGI [45] was greater than 100 µM. For the same compound, the TGI [46] was greater than 100 µM, the TGI [47] was greater than 100 µM and the TGI [48] was greater than 100 µM. For the same compound, the TGI [49] was greater than 100 µM.
